The source of these data is publication PMC12754783 (2025).

Experiment [1] relates to 222T_mA (DNA, G4) TGGGTTGGGAAGGGTTGGGT
The experiment is described as follows: native ESI-MS screening (single concentration). The note with it: 0.5 mM K+, 100 mM TMAA pH 6.8, 10 µM DNA, 20 µM ligand.

Experiment [2] concerns T24 (DNA, single strand) TTTTTTTTTTTTTTTTTTTTTTTT
The experiment is described as follows: native ESI-MS titration. The note with it: 0.5 mM K+; 100 mM TMAA pH 6.8, 10 µM DNA, up to 40 µM ligand.

Experiment [3] concerns 222T (DNA, G4) TGGGTTGGGTTGGGTTGGGT
Put plainly: native ESI-MS screening (single concentration). Conditions: 0.5 mM K+, 100 mM TMAA pH 6.8, 10 µM DNA, 20 µM ligand.

In experiment [4] the test system is 1XAV (DNA, G4) TGAGGGTGGGTAGGGTGGGTAA
Put plainly: native ESI-MS screening (single concentration). Conditions: 0.5 mM K+, 100 mM TMAA pH 6.8, 10 µM DNA, 20 µM ligand.

Experiment [5] deals with 5YEY (DNA, G4) GGGTTAGGGTTAGGGTTTGGG
The experiment is described as follows: native ESI-MS screening (single concentration). The note with it: 0.5 mM K+; 100 mM TMAA pH 6.8, 10 µM DNA, 20 µM ligand; stepwise KD1 (KD2 40).

Experiment [6] has as its system 22GT_18T (DNA, G4) GGGTTAGGGTTAGGGTTTGGGT
Put plainly: native ESI-MS screening (single concentration). Conditions: 0.5 mM K+; 100 mM TMAA pH 6.8, 10 µM DNA, 20 µM ligand; stepwise KD1.

The subject of experiment [7] is 222T (DNA, G4) TGGGTTGGGTTGGGTTGGGT
The experiment is described as follows: UV melting 295 nm. The note with it: 0.5 mM K+; 100 mM TMAA pH 6.8; 10 µM DNA, 20 µM QQPQ; two transitions.

Experiment [8] has as its system 5YEY (DNA, G4) GGGTTAGGGTTAGGGTTTGGG
The experiment is described as follows: UV melting 295 nm. Conditions: 0.5 mM K+; 100 mM TMAA pH 6.8; 10 µM DNA, 20 µM QQPQ.

For experiment [9] the test system is unchanged. The experiment is described as follows: native ESI-MS titration. The note with it: 0.5 mM K+, 100 mM TMAA pH 6.8, 10 µM DNA.
Experiment [10] has as its system TG4T (DNA, G4) TGGGGT. Put plainly: native ESI-MS screening (single concentration). The note with it: K+ 0.5 mM (KCl) with 100 mM TMAA, or NH4+ 150 mM; source does not say which; pH 6.8, 10 µM DNA, 20 µM ligand; stepwise KD1.
The subject of experiment [11] is 26TTA (DNA, G4) TTAGGGTTAGGGTTAGGGTTAGGGTT
Put plainly: native ESI-MS screening (single concentration). The note with it: 0.5 mM K+; 100 mM TMAA pH 6.8, 10 µM DNA, 20 µM ligand; stepwise KD1.

Experiment [12] relates to T30177TT (DNA, G4) TTGTGGTGGGTGGGTGGGT
Put plainly: UV melting 295 nm. Conditions: 0.5 mM K+; 100 mM TMAA pH 6.8; 10 µM DNA, 20 µM QQPQ; two transitions.

Experiment [13] has as its system 1XAV (DNA, G4) TGAGGGTGGGTAGGGTGGGTAA
The experiment is described as follows: native ESI-MS titration. Conditions: 0.5 mM K+; 100 mM TMAA pH 6.8, 10 µM DNA; stepwise KD1.

Experiment [14] concerns 21G (DNA, G4) GGGTTAGGGTTAGGGTTAGGG
Put plainly: native ESI-MS titration. The note with it: 0.5 mM K+; 100 mM TMAA pH 6.8, 10 µM DNA; KD1 differs 20-fold from 5YEY.

[15] abbreviates: stepwise KD1, exact value in Table S3.

Molecules are shown by their SMILES.

Consider `CC(=O)Nc1cccc2c(OCCCN)cc(C(=O)NCc3cccc(C(=O)NCc4cccc(C(=O)Nc5cccc6c(OCCCN)cc(C(=O)O)nc56)n4)n3)nc12`, for which the KD1 in experiment [1] (stepwise KD1 (KD2 3.4)) is 8.9 µM; in experiment [3] (stepwise KD1 (KD2 5.4)), 2.3 µM; in experiment [4] (stepwise KD1 (KD2 7.4)), 5.2 µM; in experiment [5], 75 µM. Besides, in experiment [2], the dissociation constant (KD) (commonly a measure of binding affinity in units of concentration) is reported as greater than 100 µM.

In the case of `CC(=O)Nc1cccc2c(OCCCN)cc(C(=O)NCc3cccc(C(=O)Nc4cccc5c(OCCCN)cc(C(=O)O)nc45)n3)nc12`, the KD1 in experiment [1] (stepwise KD1 (KD2 14)) worked out at 25 µM; in experiment [3] (stepwise KD1 (KD2 22)), 4.8 µM; in [4] (stepwise KD1 (KD2 27)) it was 15 µM. The KD in [2] is reported as greater than 100 µM.

`CC(=O)Nc1cccc2c(OCCCN)cc(C(=O)Nc3cccc4c(OCCCN)cc(C(=O)NCc5cccc(C(=O)Nc6cccc7c(OCCCN)cc(C(=O)O)nc67)n5)nc34)nc12`: the KD1 in [1] (stepwise KD1 (KD2 1.0)) is reported as 2.2 µM; in experiment [6], ~ 5 µM; in experiment [9] (stepwise KD1 (KD2 200 ± 70), screening gave 1.5), 0.54 ± 0.1 µM; in [3] (stepwise KD1 (KD2 2.1)) it was 0.5 µM; in experiment [4] (stepwise KD1 (KD2 1.5)) it was 0.5 µM; in [10], ~ 5 µM. Also, the KD1 in [11] is ~ 5 µM. Moreover, in [2], the KD is listed as greater than 100 µM. The figures for the ΔTm entry in experiment [7], in experiment [8] and in [12] were “~ +26 °C”, “+8.2 °C” and 17 °C, respectively.

As for `CC(=O)Nc1cccc2c(OCCCN)cc(C(=O)Nc3cccc4c(OCCCN)cc(C(=O)Nc5cccc6c(OCCCN)cc(C(=O)Nc7cccc8c(OCCCN)cc(C(=O)Nc9cccc%10c(OCCCN)cc(C(=O)Nc%11cccc%12c(OCCCN)cc(C(=O)Nc%13cccc%14c(OCCCN)cc(C(=O)Nc%15cccc%16c(OCCCN)cc(C(=O)O)nc%15%16)nc%13%14)nc%11%12)nc9%10)nc78)nc56)nc34)nc12`, the KD1 in [13] is 28 ± 6.7 µM.

`CC(=O)Nc1cccc2c(OCCCN)cc(C(=O)Nc3cccc4c(OCCCN)cc(C(=O)Nc5cccc6c(OCCCN)cc(C(=O)Nc7cccc8c(OCCCN)cc(C(=O)Nc9cccc%10c(OCCCN)cc(C(=O)O)nc9%10)nc78)nc56)nc34)nc12` displayed a KD1 in experiment [9] (setting [15]) of less than 10 µM.

On to `CC(=O)Nc1cccc2c(OCCCN)cc(C(=O)Nc3cccc4c(OCCCN)cc(C(=O)Nc5cccc6c(OCCCN)cc(C(=O)Nc7cccc8c(OCCCN)cc(C(=O)O)nc78)nc56)nc34)nc12`, for which the KD1 was 12 µM in [1] (stepwise KD1 (KD2 4.5)); 0.075 ± 0.059 µM in experiment [13]; less than 10 µM in experiment [9] (setting [15]); 1.1 µM in experiment [3] (stepwise KD1 (KD2 2.0)); 330 ± 23 µM in experiment [14].
